Source: patent US20120014911A1, “Regulators of the Interferon-Alpha Receptor 1 (IFNAR1) Chain of the Interferon Receptor” (priority 2009, published 2012)

What was measured:
2fTGH cells = format: cell-based, human; conditions: inhibitor pre-treatment 1 h, IFN-α pulse 1-2 h, read 24 h later
Stat1 = Stat1 tyrosine phosphorylation in response to IFN-α, immunoblot; format: cell-based, human; conditions: HeLa cells, inhibitor pre-treatment 1 h, IFN-α pulse 15 min
IFNAR1 = assay: Cycloheximide chase of IFNAR1 degradation; format: cell-based, human; conditions: HeLa cells, CHX chase in the presence of IFN-α
Method: (§1) Immunoprecipitation and immunoblotting procedures are described elsewhere (Fuchs et al, 1999, Oncogene 18:2039-2046). Protein degradation was carried out by cycloheximide (CHX, used at 20 μg/ml) chase. IFNAR1 internalization assay was carried out using the Fluorescence-based assay as described elsewhere (Kumar et al., 2007, J Cell Biol 179:935-950). BAY 43-9006 was obtained as a gift. Recombinant human IFN-a2 (Roferon) was purchased from Roche. Other reagents or inhibitors were purchased from commercial vendors.
Antibodies against Flag, GST and j3-actin (Sigma), HA (12CA, Roche), CK1α, PICD1/2 (PKCμ), PKD3 (PKCν), Tyk2, intracellular domain of hIFNAR1 and PKR, (Santa Cruz), anti-pan-phospho-tyrosine (4G10), phospho-Stat1 and Stat1 (Cell signaling), phospho-S710 of PKD2 (Biosource), PKD2 (Bethyl Laboratories), mIFNAR1 (Leinco) and ubiquitin (FK2, Biomol) were purchased. AA3, GB8 and EAl2 antibodies which recognize endogenous IFNAR1 (Goldman et al., 1999) and antibodies against IFNAR1 phosphorylated on Ser535 (pS535; (Kumar et al., 2004, J Biol Chem 279:46614-46620)) were described previously. Secondary antibodies conjugated to horseradish peroxidase were purchased from Chemicon and LI-COR. […] Immunoblot detection and quantification were carried out using the LI-COR's Odyssey Infrared Imaging System.

protein kinase D (PKD) = conditions: literature (Gschwendt et al., 1996; Sharlow et al., 2008); cited from earlier work
[1] = test system: IFNAR1 Ser535 phosphorylation; assay: IFN-α-induced Ser535 (degron) phosphorylation of IFNAR1 in cells, IP-immunoblot with anti-pS535; format: cell-based, human; conditions: 293T cells, inhibitor pre-treatment, IFN-α
Method: as §1
Antibodies against Flag, GST and j3-actin (Sigma), HA (12CA, Roche), CK1α, PICD1/2 (PKCμ), PKD3 (PKCν), Tyk2, intracellular domain of hIFNAR1 and PKR, (Santa Cruz), anti-pan-phospho-tyrosine (4G10), phospho-Stat1 and Stat1 (Cell signaling), phospho-S710 of PKD2 (Biosource), PKD2 (Bethyl Laboratories), mIFNAR1 (Leinco) and ubiquitin (FK2, Biomol) were purchased. AA3, GB8 and EAl2 antibodies which recognize endogenous IFNAR1 (Goldman et al., 1999) and antibodies against IFNAR1 phosphorylated on Ser535 (pS535; (Kumar et al., 2004, J Biol Chem 279:46614-46620)) were described previously. Secondary antibodies conjugated to horseradish peroxidase were purchased from Chemicon and LI-COR. Immunoprecipitation and immunoblotting procedures are described elsewhere (Fuchs et al, 1999, Oncogene 18:2039-2046). Protein degradation was carried out by cycloheximide (CHX) chase in the presence of CHX (20 μg/ml). Immunoblot detection and quantification were carried out using the LI-COR's Odyssey Infrared Imaging System.

[2] = test system: vesicular stomatitis virus (VSV); format: cell-based; conditions: human 2fTGH cells, IFN-α 25-100 U/ml, titer 24 hr after treatments

Row | SMILES | ISRE-driven luciferase transcriptional activity (2fTGH cells) | ligand-induced phosphorylation of Stat1 (Stat1) | rate of proteolytic turnover (ligand-stimulated degradation) of IFNAR1 (IFNAR1) | inhibition of / specificity against PKD (protein kinase D (PKD)) | ligand-induced Ser535 phosphorylation of endogenous IFNAR1 [1] | protective effect of IFN-α against VSV (viral titer) [2]
1 | O=C1NCCCc2c1oc1ccc(O)cc21 [CID755673] | robustly augmented | noticeably prolonged | appreciable decrease | high specificity | significant inhibition | 
2 | O.O.O.O.O.O.O.O.O.O=C([O-])[C@@H]1[O][Sb](=[O])([O][Sb]2(=[O])[O][C@H]([C@H](O)CO)[C@H](O)[C@H](C(=O)[O-])[O]2)[O][C@H]([C@H](O)CO)[C@@H]1O.[Na+].[Na+].[Na+] (stereo partly drawn) [SSG] |  |  |  |  |  | potentiates the protective effect
